According to patent US20130023491A1, “BETA-CELL REPLICATION PROMOTING COMPOUNDS AND METHODS OF THEIR USE” (President and Fellows of Harvard College, priority 2009, published 2013):

Experiments:
[1] = test system: β-cells; experiment: quantification of β-cell number (PDX-1+ cell count); type: cell-based, rat; conditions: day 6 (144 h), 5-IT 2 μM, 15 mM glucose; control wells 20%
Description: To quantify the number of β-cells at 0 h, 96 h and 144 h of culture, cells were plated in 96-well plates as above in the presence of vehicle only or 5-IT and 15 mM glucose; final DMSO dilution was 1:1000 in all wells. Time Oh was after cells had been allowed 48 h to adhere. Each condition was represented by 16 separate wells per plate to accommodate small fluctuations in plating density. Media changes were performed every 48 h. Cells were fixed at the appropriate time point and stored to be stained simultaneously for PDX-1. Automated cell counting was performed using the Cellomics ArrayScanVTI which identified PDX-1^+ cells.

[2] = test system: β-cells; experiment: β-cell replication by phosphohistone-H3 (PH3) and PDX-1 co-expression; type: cell-based, rat; conditions: A10 2 μM, B8 15 μM
Description: Rat islets were isolated as previously described in Gotoh M, Maki T, Kiyoizumi T, Satomi S, Monaco A P: An improved method for isolation of mouse pancreatic islets. Transplantation 40:437-438, 1985, contents of which are herein incorporated by reference in their entirety. Isolated islets were cultured overnight in a tissue culture incubator. The following morning, islets were trypsinized into cellular clusters of 1-3 cells, re-suspended in islet media (Mediatech 99-786-CV; 10% FBS serum (Valley Biomedial BS3033); 8.3 mM Glucose (Sigma G7528); 1× Penicillin/Streptomycin (Invitrogen 15070-063); 1× Glutamax (Invitrogen 35050-079)) and plated into the wells of a 96-well plate (Sigma CLS3904) that had been coated with 804G (a rat bladder carcinoma cell line) conditioned media. The cellular plating density was 60 k cells/well and greater than 95% viability was confirmed at the time of plating. The islet cells were allowed 48-hours to adhere at which time the media was changed (Mediatech 99-786-CV 2% serum, 5 mM glucose, 1× pen/strep, 1× glutamax) and the cells were treated with the test compounds. For screening, compounds were tested at 1 uM concentration in duplicate. After 24-hours of compound treatment, cells were fixed with fresh 4% PFA (Electron Microscopy Services 15710) for 20 minutes and washed with PBS (VWR 45000-446). […]

[3] = test system: mouse dermal fibroblasts; experiment: Ki-67 proliferation of mouse dermal fibroblasts; type: cell-based; conditions: A10 0.019-10 uM
Description: Using a protocol similar to as described in Example 1, β-cells or mouse dermal fibroblasts were treated with 10 uM, 5 uM, 2.5 uM, 1.25 um, 0.625 uM, 0.3125 uM, 0.156 uM, 0.078 uM, 0.04 uM, or 0.019 uM of A10.

[4] = test system: murine hepatocytes
Description: Total cell number was assessed with DAPI and replicating cells were ki-67^+. The Cellomics ArrayScanVTI was used for image acquisition and analysis.

Nc1ncnc2c1c(I)cn2[C@@H]1O[C@H](CO)[C@@H](O)[C@H]1O [A10, 5-iodotubercidin] was tested, and the “increase in number of β-cells compared to time 0” value [1] was 40%, the “ratio of PH3 over PDX-1 relative to control DMSO treatment” value [2] was “increased” and the “% Ki-67 positive mouse dermal fibroblasts” value [3] was “did not change”. The “tolerability by cultured hepatocytes” value [4] was “not well tolerated”.
